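Tested at 5 concentrations; 48 h exposure; 96-well plates; endpoints linearly interpolated, else capped at highest concentration. GI50 = concentration required for 50% inhibition of growth.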 Active and inactive are the calls of the source. Cut-off read from the data, not from the text of the source: active = GI50 up to about 1.1 µM and inactive = higher.
Legend:
Assay in all cases: growth of human tumour cells (NCI), 48 h
UACC-257 = tested on: UACC-257
A549 = tested on: A549
HT-29 = tested on: HT-29
BT-549 = tested on: BT-549
IGROV-1 = tested on: IGROV-1
SK-MEL-5 = tested on: SK-MEL-5
NCI/ADR-RES = tested on: NCI/ADR-RES
OVCAR-3 = tested on: OVCAR-3
COLO 205 = tested on: COLO 205
SK-MEL-2 = tested on: SK-MEL-2
T47D = tested on: T47D
HOP-92 = tested on: HOP-92
NCI-H460 = tested on: NCI-H460
A498 = tested on: A498
LOX IMVI = tested on: LOX IMVI
HL-60 = tested on: HL-60
SNB-75 = tested on: SNB-75
OVCAR-4 = tested on: OVCAR-4
SK-MEL-28 = tested on: SK-MEL-28
MOLT-4 = tested on: MOLT-4

SMILES | GI50 (UACC-257) | GI50 (A549) | GI50 (HT-29) | GI50 (BT-549) | GI50 (IGROV-1) | GI50 (SK-MEL-5) | GI50 (NCI/ADR-RES) | GI50 (OVCAR-3) | GI50 (COLO 205) | GI50 (SK-MEL-2) | GI50 (T47D) | GI50 (HOP-92) | GI50 (NCI-H460) | GI50 (A498) | GI50 (LOX IMVI) | GI50 (HL-60) | GI50 (SNB-75) | GI50 (OVCAR-4) | GI50 (SK-MEL-28) | GI50 (MOLT-4)
O=C1C=CC2(C=C1)O[C@H](Cc1ccccc1)[C@@H](Cc1ccccc1)O2 | 1.28 µM (inactive) | 4.62 µM (inactive) | 0.964 µM (active) | 0.201 µM (active) | 0.218 µM (active) | 0.568 µM (active) | 0.303 µM (active) | 0.298 µM (active) | 1.55 µM (inactive) | 1.41 µM (inactive) | 0.44 µM (active) | 1.01 µM (active) | 8.79 µM (inactive) | 5.74 µM (inactive) | 0.223 µM (active) | 1.28 µM (inactive) | 2.91 µM (inactive) | 0.347 µM (active) | 0.887 µM (active) | 
O=c1oc2ccccc2cc1-c1ccc([N+](=O)[O-])cc1 | > 100 µM (inactive) | 85.9 µM (inactive) | > 100 µM (inactive) | 16.5 µM (inactive) | > 100 µM (inactive) | 53 µM (inactive) | > 100 µM (inactive) | > 100 µM (inactive) | > 100 µM (inactive) | > 100 µM (inactive) | > 100 µM (inactive) | > 100 µM (inactive) | 14.6 µM (inactive) | 85.5 µM (inactive) | > 100 µM (inactive) | > 100 µM (inactive) | > 100 µM (inactive) | > 100 µM (inactive) | > 100 µM (inactive) | > 100 µM (inactive)
O=C(O)c1[nH]c(=O)[nH]c(=O)c1CN1CCCCC1 | > 100 µM (inactive) | > 100 µM (inactive) | > 100 µM (inactive) | > 100 µM (inactive) | > 100 µM (inactive) | > 100 µM (inactive) | > 100 µM (inactive) | > 100 µM (inactive) | > 100 µM (inactive) | > 100 µM (inactive) | > 100 µM (inactive) | > 100 µM (inactive) | > 100 µM (inactive) | > 100 µM (inactive) | > 100 µM (inactive) | > 100 µM (inactive) | > 100 µM (inactive) | > 100 µM (inactive) | > 100 µM (inactive) | 
CC(=O)c1ccccc1NS(=O)(=O)c1ccc2nc(C)n(NS(=O)(=O)c3ccccc3C(C)=O)c(=O)c2c1 | > 100 µM (inactive) |  | > 100 µM (inactive) | > 100 µM (inactive) | > 100 µM (inactive) | > 100 µM (inactive) | > 100 µM (inactive) | > 100 µM (inactive) | > 100 µM (inactive) | > 100 µM (inactive) | > 100 µM (inactive) | > 100 µM (inactive) | > 100 µM (inactive) | > 100 µM (inactive) | > 100 µM (inactive) | > 100 µM (inactive) | > 100 µM (inactive) | > 100 µM (inactive) | > 100 µM (inactive) | > 100 µM (inactive)
Nc1ccn(C2OC(CO)C(O)C2O)c(=O)n1 (configuration not stated) | 120 µM (inactive) | 0.14 µM (active) | 112 µM (inactive) | 286 µM (inactive) | 313 µM (inactive) | 19.8 µM (inactive) | 1.16 µM (inactive) | 429 µM (inactive) | 139 µM (inactive) | 457 µM (inactive) | 330 µM (inactive) | 9.55 µM (inactive) | 0.0885 µM (active) | 18 µM (inactive) | 0.219 µM (active) | 0.203 µM (active) | 308 µM (inactive) | 457 µM (inactive) | 68.2 µM (inactive) | 0.0582 µM (active)
N#CC1(C#N)NC(c2ccccc2)C(C#N)(C#N)NC1c1ccccc1 (configuration not stated) | > 100 µM (inactive) | > 100 µM (inactive) | > 100 µM (inactive) | > 100 µM (inactive) | > 100 µM (inactive) | > 100 µM (inactive) | > 100 µM (inactive) | > 100 µM (inactive) | > 100 µM (inactive) | > 100 µM (inactive) | > 100 µM (inactive) | 86.7 µM (inactive) | > 100 µM (inactive) | > 100 µM (inactive) | > 100 µM (inactive) | 41.1 µM (inactive) | > 100 µM (inactive) | > 100 µM (inactive) | > 100 µM (inactive) | > 100 µM (inactive)
CCOP(=O)(OCC)C(NC(=O)OCC(Cl)(Cl)Cl)n1nnc(C(=O)OC)c1C(=O)OC (configuration not stated) | > 100 µM (inactive) | > 100 µM (inactive) | > 100 µM (inactive) | > 100 µM (inactive) | > 100 µM (inactive) | > 100 µM (inactive) | > 100 µM (inactive) | > 100 µM (inactive) | > 100 µM (inactive) | > 100 µM (inactive) | > 100 µM (inactive) | > 100 µM (inactive) | > 100 µM (inactive) | > 100 µM (inactive) | > 100 µM (inactive) | > 100 µM (inactive) | > 100 µM (inactive) | > 100 µM (inactive) | > 100 µM (inactive) | > 100 µM (inactive)
O=C1C=C(C2=CC(=O)C(=O)c3ccccc32)c2ccccc2C1=O | 6.24 µM (inactive) | 35.6 µM (inactive) | 28.6 µM (inactive) | 46.6 µM (inactive) | 28.8 µM (inactive) | 2.85 µM (inactive) | 23.2 µM (inactive) | 2.58 µM (inactive) | 18 µM (inactive) | 19.5 µM (inactive) | 19.5 µM (inactive) | 11.3 µM (inactive) |  | 46.6 µM (inactive) | 3.87 µM (inactive) | 3.03 µM (inactive) | 22.4 µM (inactive) | 47.6 µM (inactive) | 4.26 µM (inactive) | 2.44 µM (inactive)
COc1ccc(-c2cc(-c3ccc(Nc4ccnc5cc(Cl)ccc45)cc3)[nH]c(=O)c2C#N)cc1 |  | > 100 µM (inactive) |  | > 100 µM (inactive) | > 100 µM (inactive) |  | > 100 µM (inactive) | > 100 µM (inactive) | > 100 µM (inactive) | > 100 µM (inactive) | > 100 µM (inactive) | > 100 µM (inactive) | > 100 µM (inactive) | > 100 µM (inactive) | > 100 µM (inactive) | > 100 µM (inactive) | > 100 µM (inactive) | > 100 µM (inactive) | > 100 µM (inactive) | > 100 µM (inactive)
Cc1cc(C)c2c(c1)C(=O)C1(C2)Cc2c(ccc(C)c2C)C1=O (configuration not stated) | > 100 µM (inactive) | > 100 µM (inactive) |  | > 100 µM (inactive) | > 100 µM (inactive) | > 100 µM (inactive) | > 100 µM (inactive) | 14.3 µM (inactive) | > 100 µM (inactive) | > 100 µM (inactive) | > 100 µM (inactive) | > 100 µM (inactive) | > 100 µM (inactive) | > 100 µM (inactive) | > 100 µM (inactive) | > 100 µM (inactive) | > 100 µM (inactive) | > 100 µM (inactive) | > 100 µM (inactive) | > 100 µM (inactive)

— ChEMBL document CHEMBL1201862, “PubChem BioAssay data set” (2004)
